# Data: US11911628B2, “Electrostatic drug delivery” (NANO HESGARSAZAN SALAMAT ARYA INCUBATION CENTER FOR MEDICAL …, priority 2019, dated 2024)
# Entries after “also recorded” stand apart in the source; their conditions may differ.
# System: MC4L2 mice tumor
# Test: MC4L2 mice tumor treated with drug with or without electrostatic field, tumor followed by sonography
# Assay type: in vivo
# Details: for reduction in tumor volume: without electrostatic field
# Protocol: Here, three injection periods of Cisplatin were carried out every 3 days for a group of mice having a MC4L2 mice tumor as an example of triple-positive breast cancer. About 20 mg/kg of Cisplatin was applied for a Control sample with a MC4L2 mice tumor without applying an electrostatic field. In each period, about 5 mg/kg of Cisplatin was applied for a sample mouse No. 1 with a MC4L2 mice tumor, and then followed by applying an electrostatic field with an intensity in a range of −60 V to −120 V according to exemplary method 100 or exemplary method 110, described hereinabove, utilizing a conductive patch similar to electrically conductive element 304 on mice skin near the MC4L2 tumor site, and applying direct current (DC) electrostatic field utilizing a Van de Graaff device.
# All sonography images were taken after about 10 days of treatments, and all drug injections were done every about 3 days.
SMILES,"tumor after treatment (sonography) (about 5 mg/kg Cisplatin per period, then DC electrostatic field -60 V to -120 V via conductive patch, three periods every 3 days)","reduction in tumor volume (about 20 mg/kg Cisplatin, injections every 3 days, sonography)","tumor after treatment (sonography) (about 1 mg/kg Doxorubicin per period, then DC electrostatic field 60 V to 120 V via conductive patch, four periods every 3 days)","reduction in tumor volume (about 10 mg/kg Doxorubicin, sonography after about 10 days)"
N.N.[Cl][Pt][Cl] [Cisplatin],no observable trace of tumor; also recorded: removed completely,about 60%,,
COc1cccc2c1C(=O)c1c(O)c3c(c(O)c1C2=O)C[C@@](O)(C(=O)CO)C[C@@H]3O[C@H]1C[C@H](N)[C@H](O)[C@H](C)O1 [Doxorubicin],,,no observable trace of tumor; also recorded: removed completely,about 75%
